Key:
[1] = system: central benzodiazepine receptors (CBR); assay: Affinity to central benzodiazepine receptors, competitive displacement of [3H]-flumazenil (radioreceptor method); type: binding; details: 1×10^−6 mol/L
Procedure: Affinity of the compounds to central benzodiazepine receptors (CBR) was studied using radioreceptor method of competitive displacement of radioligant [^3H]-flumazenil (Ro 15-1788) from its specific binding sites at the receptor. Ligand displacement were performed in 1×10^−6 mol/L concentration.
(§1) Data on the affinity of 3-alcoxy-1,3-dihydro-2H-benzo[e][1,4]diazepin-2-ones (Ia) to central and peripheral benzodiazepine receptors is presented in Table 3.

[2] = molecular target: peripheral benzodiazepine receptors (PBR) (Homo sapiens, UniProt P30536); assay: Affinity to peripheral benzodiazepine receptors; type: binding; details: 1×10^−6 mol/L
Description: as §1

[3] = system: writhes induced by intraperitoneal acetic acid; assay: Analgesic activity, acetic acid-induced writhing test (peripheral pain model); type: in vivo; details: 1 mg/kg intraperitoneally, 40 min before 0.75% acetic acid
Procedure: Assessment of analgesic activity was performed in a model of peripheral pain based on chemical pain induced by intraperitoneal administration of acetic acid, leading to involuntary contractions of abdominal muscles, termed “writhes”, accompanied by hind leg extension and spine arching. The writhes were induced by 0.75% solution of acetic acid, which was administered intraperitoneally 40 min after intraperitoneal administration of test compounds in 0.001-5 mg/kg dose range. […] Analgesic activity was assessed by the ability of the compounds to reduce the number of writhes in test group compared to control group, and indicated as percentage using the following formula: AA=(Wc−Wt/Wc)×100%,
where AA—analgesic activity in %;
Wc—average number of writhes in control group;
Wt—average number of writhes in test group
Test compounds were studied in comparison with the reference drug sodium diclofenac in 10 mg/kg dose. ED50 was calculated using Prozorovsky method.

immobility time of mice = assay: Antidepressant activity, Porsolt forced swimming test; type: in vivo; details: 1 mg/kg
Procedure: Studies of pharmacological activity of 3-arylamino-1,3-dihydro-2H-benzo[e][1,4]diazepin-2-ones, namely, their action of appetite, assessment of antihypoxic and antidepressant activity was performed in white male rats with body mass 150-180 g and male mice with body mass 18-22 g. The animals were kept on a standard laboratory diet and natural lighting. Animals of control group were given a water-Tween suspension. Test compounds were administered in a suspension with Tween-80 Reference drugs were the hormone leptin, in 0.0002 mg/kg dose, and a well-known antidepressant amitriptyline (solution for injections in 1 ml vials. Test compounds and the water-Tween suspension were administered in a dose of 0.2 ml/100 g of rat body mass.
Antidepressant activity was studied using «Porsolt forced swimming test» [15], which models stress in mice by forcing them to swim in a narrow translucent cylinder, filled by ⅓ volume with water at 23-25° C. temperature. Antidepressant action is assessed by the reduction in immobility time, when the animals have minimal amount of paddling, in seconds or percentage compared to control. The animal behavior was registered for 4 minutes after acclimatization for 2 minutes.

[4] = system: number of drinking actions despite electric shock; assay: Anxiolytic activity, conflict situation model (drinking versus electric shock); type: in vivo; details: for Anxiolytic activity assessed using conflict situation method (5 mg/kg): number of drinking actions despite electric shock, 30 min before test; for Anxiolytic properties: 5 mg/kg
Procedure: Anxiolytic activity was assessed in a model of conflict situation based on the conflict of two reflexes (drinking and defensive) when drinking water from a water fountain. Anxiolytic activity was assessed by the number of drinking actions despite electric shock.
(§2) Diazepam drug was used as the reference drug. All test compounds and the reference drug diazepam were administered in a suspension with Tween-80 in 5 mg/kg dose 30 min before the start of experiments.

[5] = system: general movement activity of animals; assay: General movement activity, open field test; type: in vivo; details: for General movement activity (5 mg/kg): open field 3 min, sum of rearings, transitions, explored holes, 30 min before test; for Sedative properties (words, from general movement activity versus control): 5 mg/kg
Procedure: General movement activity was assessed in an open field test. While the animals were in the open field (3 min), the number of rearings (vertical movement activity), transitions between squares (horizontal movement activity) and the number of explored holes (exploratory activity) were registered. The sum of these values is general movement activity.
as §2

peripheral benzodiazepine receptors (PBR), sequence (P30536 whole entry, species assumed): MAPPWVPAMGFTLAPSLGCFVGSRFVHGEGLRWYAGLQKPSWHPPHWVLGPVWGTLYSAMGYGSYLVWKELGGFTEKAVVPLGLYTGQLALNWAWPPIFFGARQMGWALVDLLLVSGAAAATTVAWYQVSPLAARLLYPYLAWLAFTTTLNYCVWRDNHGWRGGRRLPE

Row | Structure (SMILES) | Affinity CBR, % [1] | Affinity PBR, % [2] | Writhing inhibition, % of control in 1 mg/kg dose ([3]; compounds Ia) | Writhing inhibition, % of control in 1 mg/kg dose ([3]; compounds Ib) | Anxiolytic activity assessed using conflict situation method (5 mg/kg) [4] | General movement activity (5 mg/kg) [5] | other results
1 | CCCCOC1N=C(c2ccccc2Cl)c2cc([N+](=O)[O-])ccc2NC1=O (stereo not shown) [Compound 55] | 87% | 19% |  |  |  |  | 
2 | CCCOC1N=C(c2ccccc2)c2cc(OC(F)(F)F)ccc2NC1=O (stereo not shown) [Compound 28] | 60% | 18% | 60% |  |  |  | 
3 | CCCCOC1N=C(c2ccccc2)c2cc(OC(F)(F)F)ccc2NC1=O (stereo not shown) [Compound 29] | 61% | 15% | 56% |  |  |  | 
4 | CCCOC1N=C(c2ccccc2F)c2cc(Br)ccc2NC1=O (stereo not shown) [Compound 2] | 85% | 5% | 55% |  |  |  | 
5 | O=C1Nc2ccc(OC(F)(F)F)cc2C(c2ccccc2)=NC1OCCO (stereo not shown) [Compound 30] | 65% | 16% | 50% |  |  |  | 
6 | CCCOC1N=C(c2ccccc2Cl)c2cc([N+](=O)[O-])ccc2NC1=O (stereo not shown) [Compound 54] | 88% | 16% |  |  |  |  | 
7 | CN(C)CCC=C1c2ccccc2CCc2ccccc21 [amitriptyline, reference compound] |  |  |  |  |  |  | Reduction of immobility time compared to control (immobility time of mice): 40%
8 | COC(=O)CN1C(=O)C(Nc2cccc(F)c2)N=C(c2ccccc2)c2cc(Cl)ccc21 (stereo not shown) [Compound 159] |  |  |  |  |  |  | Reduction of immobility time compared to control (immobility time of mice): 32%
9 | CCOC1N=C(c2ccccc2)c2cc(OC(F)(F)F)ccc2NC1=O (stereo not shown) [Compound 27] | 56% | 16% | 55% |  |  |  | 
10 | COCCOC1N=C(c2ccccc2F)c2cc(Br)ccc2NC1=O (stereo not shown) [Compound 5] | 90% | 10% | 52% |  |  |  | 
11 | CCOC1N=C(c2ccccc2Cl)c2cc([N+](=O)[O-])ccc2NC1=O (stereo not shown) [Compound 53] | 85% | 15% |  |  |  |  | 
12 | COC(=O)CN1C(=O)C(Nc2ccc(F)cc2)N=C(c2ccccc2Cl)c2cc([N+](=O)[O-])ccc21 (stereo not shown) [Compound 319] |  |  |  | 61% | 18.1 ± 2.2 | 27.2 ± 2.1 | 
13 | O=C1Nc2ccc(Br)cc2C(c2ccccc2F)=NC1OCC1CC1 (stereo not shown) [Compound 6] | 89% | 15% | 55% |  |  |  | 
14 | COC(=O)CN1C(=O)C(Nc2cccc(C(C)=O)c2)N=C(c2ccccc2F)c2cc(Br)ccc21 (stereo not shown) [Compound 90] |  |  |  | 68% | 8.2 ± 3.4 | 24.5 ± 2.3 | 
15 | O=C1Nc2ccc(Cl)cc2C(c2ccccc2)=NC1OCC1CC1 (stereo not shown) [Compound 17] | 79% | 14% | 54% |  |  |  | 
16 | COC(=O)CN1C(=O)C(Nc2ccccc2[N+](=O)[O-])N=C(c2ccccc2)c2cc(OC(F)(F)F)ccc21 (stereo not shown) [Compound 227] |  |  |  | 60% | 109.5 ± 8.3 | 13.0 ± 1.3 | Anxiolytic properties [4]: potent anxiolytic properties
17 | COC(=O)CN1C(=O)C(Nc2ccc(Cl)cc2)N=C(c2ccccc2F)c2cc([N+](=O)[O-])ccc21 (stereo not shown) [Compound 364] |  |  |  | 64% | 26.2 ± 3.4 | 34.5 ± 3.3 | 
18 | COC(=O)CN1C(=O)C(Nc2cccc(C(F)(F)F)c2)N=C(c2ccccc2F)c2cc([N+](=O)[O-])ccc21 (stereo not shown) [Compound 399] |  |  |  | 70% | 44.4 ± 4.3 | 41.8 ± 4.3 | Sedative properties (words, from general movement activity versus control) [5]: don't have sedative properties
19 | COC(=O)CN1C(=O)C(Nc2ccccc2Cl)N=C(c2ccccc2F)c2cc([N+](=O)[O-])ccc21 (stereo not shown) [Compound 362] |  |  |  | 65% | 35.1 ± 3.5 | 29.2 ± 2.3 | 
20 | COC(=O)CN1C(=O)C(Nc2ccc(Br)cc2)N=C(c2ccccc2Cl)c2cc([N+](=O)[O-])ccc21 (stereo not shown) [Compound 328] |  |  |  | 69% | 23.2 ± 3.4 | 24.5 ± 2.3 | 
21 | O=C1Nc2ccc(Br)cc2C(c2ccccc2F)=NC1OCCO (stereo not shown) [Compound 4] | 91% | 8% | 56% |  |  |  | 
22 | COC(=O)CN1C(=O)C(Nc2ccccc2F)N=C(c2ccccc2Cl)c2cc([N+](=O)[O-])ccc21 (stereo not shown) [Compound 317] |  |  |  | 63% | 33.4 ± 3.2 | 47.0 ± 3.7 | Sedative properties (words, from general movement activity versus control) [5]: don't have sedative properties
23 | COC(=O)CN1C(=O)C(Nc2ccc([N+](=O)[O-])cc2)N=C(c2ccccc2)c2cc(Cl)ccc21 (stereo not shown) [Compound 175] |  |  |  | 55% | 48.7 ± 3.6 | 20.0 ± 1.0 | 
24 | COC(=O)CN1C(=O)C(Nc2ccccc2[N+](=O)[O-])N=C(c2ccccc2)c2cc([N+](=O)[O-])ccc21 (stereo not shown) [Compound 281] |  |  |  | 61% | 115.6 ± 9.3 | 14.0 ± 1.4 | Anxiolytic properties [4]: potent anxiolytic properties
25 | COC(=O)CN1C(=O)C(Nc2cccc(F)c2)N=C(c2ccccc2Cl)c2cc([N+](=O)[O-])ccc21 (stereo not shown) [Compound 318] |  |  |  | 65% | 19.2 ± 3.4 | 28.5 ± 2.3 | 
26 | COCCOC1N=C(c2ccccc2)c2cc(Cl)ccc2NC1=O (stereo not shown) [Compound 16] | 88% | 15% | 55% |  |  |  | 
27 | CCCCOC1N=C(c2ccccc2F)c2cc(Br)ccc2NC1=O (stereo not shown) [Compound 3] | 88% | 8% | 45% |  |  |  | 
28 | COC(=O)CN1C(=O)C(Nc2ccccc2C(C)=O)N=C(c2ccccc2F)c2cc(Br)ccc21 (stereo not shown) [Compound 89] |  |  |  | 66% | 3.4 ± 1.2 | 40.0 ± 2.7 | Sedative properties (words, from general movement activity versus control) [5]: don't have sedative properties

— patent US11358939B2, “1,4-benzodiazepin-2-one derivatives and use thereof” (priority 2017, dated 2022)
